Earlier results, collected in PMC12281572.
“And” between values parts separate entries of the source, which are not always exact repeats. Equal entries are not always repeated.

Experiment: FTIR, 4-fluorophenol as donor (the pK_BHX database, per the paper)
Details: CCl4; 25 C

| SMILES | pK_BHX (log10 Kf of the 1:1 H-bond complex with 4-fluorophenol, by FTIR) |
| --- | --- |
| CC(C)C(=O)N(C)C | 2.26 log units |
| CN(C)C=NCc1cccc(Cl)c1 | 2.1 log units |
| c1ccc2c(c1)OCCO2 | -0.23 log units |
| O=C(C12CC3CC(CC(C3)C1)C2)C12CC3CC(CC(C3)C1)C2 | 1.17 log units |
| Cc1cccc(C)c1[N+](=O)[O-] | 0.29 log units |
| CCN(C(=O)N(CC)c1ccccc1)c1ccccc1 | 2.16 log units |
| CC(=Nc1cccc(Br)c1)Nc1ccccc1 | 1.24 log units |
| FC(F)(F)c1cccc(C2CCCN2)c1 (centres unmarked) | 1.38 log units |
| O=C(c1ccccc1)N(c1ccccc1)c1ccccc1 | 1.61 log units |
| [O-][n+]1ccc(-c2ccccc2)cc1 | 2.85 log units |
| CC(C)N(C=O)C(C)C | 2.24 log units |
| C1CNC1 | 2.59 log units |
| CCC(CC)N(C(C)C)C(C)C | -0.34 log units |
| N#Cc1ccc(-c2ccccc2)cc1 | 0.83 log units |
| COc1ccccc1 | -0.07 log units |
| OC(C(F)(F)F)C(F)(F)F | -0.96 log units |
| CC(=O)c1ccc(C(C)(C)C)cc1 | 1.25 log units |
| NCCN | 2.25 log units |
| CC(=O)N1CCCCC1 | 2.45 log units |
| CCO | 1.02 log units |
| CN(C)C=O | 2.1 log units |
| COc1ccc(C(C)=O)cc1 | 1.33 log units |

| SMILES | pK_BHX (log10 Kf of the 1:1 H-bond complex with 4-fluorophenol, by FTIR) |
| --- | --- |
| CCN(C=C[N+](=O)[O-])CC | 1.58 log units |
| CCN(CC)C(=O)C(F)(F)F | 1.06 log units |
| CC(C)c1ccccc1 | -0.34 log units |
| COc1ccc(N(C)C(=Nc2ccc(Br)cc2)c2ccccc2)cc1 | 1.23 log units |
| CC12CCC(CC1=O)C2(C)C (centres unmarked) | 1.31 log units |
| CN(C)C=NCC(F)(F)F | 1.6 log units |
| CN(C(=Nc1ccc(Br)cc1)c1ccccc1)c1ccccc1 | 1.11 log units |
| CN(C)C(=O)c1ccc(N(C)C)cc1 | 2.49 log units |
| CC(C)N(C#N)C(C)C | 1.74 log units |
| CC(=O)N(C(C)C)C(C)C | 2.47 log units |
| CN(C)C=Nc1ccc(C#N)cc1 | 1.32 log units and 1.23 log units |
| CN(C)C=NCc1ccccc1 | 2.35 log units |
| N | 1.74 log units |
| CCCCCC#N | 0.89 log units |
| CN(C)C=NCc1cccc(C(F)(F)F)c1 | 1.99 log units |
| CN(C)C | 2.13 log units |
| CCSC(=O)OC | 0.73 log units |
| C1CCSC1 | 0.32 log units |
| O=[N+]([O-])c1cc[n+]([O-])cc1 | 1.05 log units |
| C1CCNC1 | 2.59 log units |
| COC(=O)C1CCCCC1 | 1.06 log units |
| c1ncncn1 | 0.32 log units |
